Data: ChEMBL document CHEMBL4364276, “Discovery of 4-phenyl-2H-benzo[b][1,4]oxazin-3(4H)-one derivatives as potent and orally active PI3K/mTOR dual inhibitors” (Eur J Med Chem, 2019)

Key:
[1] = biological target: CDK2/Cyclin O (Homo sapiens) (UniProt P24941+P22674); experiment: Inhibition of human CDK2/cyclin-O at 100 nM using histone H1 as substrate by [gamma-33P]-ATP assay; type: protein-complex assay
[2] = biological target: RAC-alpha serine/threonine-protein kinase (Homo sapiens) (UniProt P31749); experiment: Inhibition of human AKT1 at 100 nM using KGSGSGRPRTSSFAEG as substrate by [gamma-33P]-ATP assay
[3] = biological target: Insulin-like growth factor 1 receptor (Homo sapiens) (UniProt P08069); experiment: Inhibition of human IGF1R at 100 nM using KKKSPGEYVNIEFG as substrate by [gamma-33P]-ATP assay
PI3K p110 beta/p85 alpha = PI3K p110 beta/p85 alpha (Homo sapiens, UniProt P42338); experiment: Inhibition of recombinant human full length N-terminal GST-tagged PI3Kbeta (1 to 1070 residues)/PIK3R1 (1 to 724 residues) expressed in baculovirus expression system using PIP2 as substrate incubated for 2 hrs by ADP-Glo assay
[4] = biological target: Protein kinase C theta type (Homo sapiens) (UniProt Q04759); experiment: Inhibition of human PKCtheta at 100 nM using Histone H1 as substrate by [gamma-33P]-ATP assay
[5] = biological target: Tyrosine-protein kinase receptor TYRO3 (Homo sapiens) (UniProt Q06418); experiment: Inhibition of human TYRO3 at 100 nM using poly[Glu:Tyr] (4:1) as substrate by [gamma-33P]-ATP assay
[6] = biological target: Calcium/calmodulin-dependent protein kinase type 1B (Homo sapiens) (UniProt Q6P2M8); experiment: Inhibition of human CAMK1B at 100 nM using KKALRRQETVDAL as substrate by [gamma-33P]-ATP assay
[7] = biological target: Homeodomain-interacting protein kinase 2 (Homo sapiens) (UniProt Q9H2X6); experiment: Inhibition of human HIPK2 at 100 nM using MBP as substrate by [gamma-33P]-ATP assay
[8] = biological target: Focal adhesion kinase 1 (Homo sapiens) (UniProt Q05397); experiment: Inhibition of human FAK at 100 nM using poly[Glu:Tyr] (4:1) as substrate by [gamma-33P]-ATP assay
[9] = Inhibition of PI3K/Akt/mTOR signaling in human HeLa cells assessed as reduction in S6 phosphorylation incubated for 24 hrs by Western blot analysis; type: cell-based
[10] = biological target: Mitogen-activated protein kinase 8 (Homo sapiens) (UniProt P45983); experiment: Inhibition of human JNK1 at 100 nM using ATF2 as substrate by [gamma-33P]-ATP assay
[11] = Toxicity in BALB/c mouse xenografted with human A549 cells assessed as reduction in body weight at 20 to 40 mg/kg, ig administered for 30 days; type: organism-based; settings: in vivo, po, 720 h
[12] = biological target: Cyclin-dependent kinase 2/cyclin E1 (Homo sapiens) (UniProt P24864+P24941); experiment: Inhibition of human CDK2/cyclin-E at 100 nM using histone H1 as substrate by [gamma-33P]-ATP assay; type: protein-complex assay
[13] = biological target: Death-associated protein kinase 3 (Homo sapiens) (UniProt O43293); experiment: Inhibition of human ZIPK at 100 nM using KKLNRTLSFAEPG as substrate by [gamma-33P]-ATP assay
[14] = biological target: Casein kinase I isoform alpha (Homo sapiens) (UniProt P48729); experiment: Inhibition of human CK1a1 at 100 nM using KRRRAL[pS]VASLPGL as substrate by [gamma-33P]-ATP assay
[15] = biological target: Dual specificity mitogen-activated protein kinase kinase 6 (Homo sapiens) (UniProt P52564); experiment: Inhibition of human MKK6 at 100 nM using p38alpha as substrate by [gamma-33P]-ATP assay
A-375 = experiment: Antiproliferative activity against human A375 cells assessed as reduction in cell viability incubated for 72 hrs by MTT assay; type: functional, cell-based; settings: A-375, 72 h
[16] = biological target: SRSF protein kinase 1 (Homo sapiens) (UniProt Q96SB4); experiment: Inhibition of human SRPK1 at 100 nM using GRSRSRSRSR as substrate by [gamma-33P]-ATP assay
[17] = biological target: CDK9/Cyclin K (Homo sapiens) (UniProt P50750+O75909); experiment: Inhibition of human CDK9/cyclin-K at 100 nM using KTFCGTPEYLAPEVRREPRILSEEEQEMFRDFDYIADWC as substrate by [gamma-33P]-ATP assay; type: protein-complex assay
[18] = biological target: Serine/threonine-protein kinase SIK3 (Homo sapiens) (UniProt Q9Y2K2); experiment: Inhibition of human SIK3 at 100 nM using AMARAASAAALARRR as substrate by [gamma-33P]-ATP assay
[19] = biological target: Aurora kinase C (Homo sapiens) (UniProt Q9UQB9); experiment: Inhibition of human Aurora C at 100 nM using [H-LRRASLG] as substrate by [gamma-33P]-ATP assay
[20] = Clearance in Sprague-Dawley rat at 1 mg/kg, iv measured upto 24 hrs by LC-MS/MS analysis; type: ADME, organism-based; settings: in vivo
[21] = biological target: Aurora kinase A (Homo sapiens) (UniProt O14965); experiment: Inhibition of human Aurora A at 100 nM using [H-LRRASLG] as substrate by [gamma-33P]-ATP assay
[22] = biological target: Serine/threonine-protein kinase tousled-like 1 (Homo sapiens) (UniProt Q9UKI8); experiment: Inhibition of human TLK1 at 100 nM using Histone H3 as substrate by [gamma-33P]-ATP assay
[23] = biological target: Serine/threonine-protein kinase mTOR (Homo sapiens, UniProt P42345); experiment: Inhibition of human mTOR at 100 nM using 4EBP1 as substrate by [gamma-33P]-ATP assay
[24] = biological target: Angiopoietin-1 receptor (Homo sapiens) (UniProt Q02763); experiment: Inhibition of human TIE2 at 100 nM using poly[Glu:Tyr] (4:1) as substrate by [gamma-33P]-ATP assay
[25] = biological target: Lymphokine-activated killer T-cell-originated protein kinase (Homo sapiens) (UniProt Q96KB5); experiment: Inhibition of human PBK at 100 nM using MBP as substrate by [gamma-33P]-ATP assay
[26] = biological target: Dual specificity mitogen-activated protein kinase kinase 5 (Homo sapiens) (UniProt Q13163); experiment: Inhibition of human MEK5 at 100 nM using ERK5 as substrate by [gamma-33P]-ATP assay
[27] = biological target: Receptor tyrosine-protein kinase erbB-4 (Homo sapiens) (UniProt Q15303); experiment: Inhibition of human ERBB4 at 100 nM using poly[Glu:Tyr] (4:1) as substrate by [gamma-33P]-ATP assay
[28] = biological target: Beta-adrenergic receptor kinase 1 (Homo sapiens) (UniProt P25098); experiment: Inhibition of human GRK2 at 100 nM using casein as substrate by [gamma-33P]-ATP assay
[29] = biological target: Insulin receptor (Homo sapiens) (UniProt P06213); experiment: Inhibition of human IR at 100 nM using poly[Glu:Tyr] (4:1) as substrate by [gamma-33P]-ATP assay

PI3K p110 beta/p85 alpha, sequence (P27986 whole entry, the tested form may be a part): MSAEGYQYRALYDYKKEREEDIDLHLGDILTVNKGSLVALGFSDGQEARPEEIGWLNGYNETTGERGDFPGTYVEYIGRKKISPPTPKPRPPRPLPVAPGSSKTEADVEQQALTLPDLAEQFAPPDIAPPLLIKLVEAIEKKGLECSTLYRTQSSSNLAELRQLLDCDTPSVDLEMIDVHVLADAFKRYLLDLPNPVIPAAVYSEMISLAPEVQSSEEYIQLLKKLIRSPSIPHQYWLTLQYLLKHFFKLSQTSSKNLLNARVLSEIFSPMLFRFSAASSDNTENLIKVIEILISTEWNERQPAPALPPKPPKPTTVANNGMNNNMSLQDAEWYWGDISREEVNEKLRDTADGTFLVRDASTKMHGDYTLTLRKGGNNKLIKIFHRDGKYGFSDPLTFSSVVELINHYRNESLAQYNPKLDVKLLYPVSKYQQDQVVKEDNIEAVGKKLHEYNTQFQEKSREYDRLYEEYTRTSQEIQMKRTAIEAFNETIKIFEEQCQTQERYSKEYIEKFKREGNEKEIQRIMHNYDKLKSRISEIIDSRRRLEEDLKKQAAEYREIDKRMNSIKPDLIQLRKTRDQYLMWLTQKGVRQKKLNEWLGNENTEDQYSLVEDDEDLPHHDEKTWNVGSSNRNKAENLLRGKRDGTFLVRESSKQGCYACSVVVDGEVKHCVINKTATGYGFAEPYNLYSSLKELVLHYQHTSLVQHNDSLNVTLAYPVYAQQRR
PI3K p110 beta/p85 alpha, sequence (P42338 whole entry, the tested form may be a part): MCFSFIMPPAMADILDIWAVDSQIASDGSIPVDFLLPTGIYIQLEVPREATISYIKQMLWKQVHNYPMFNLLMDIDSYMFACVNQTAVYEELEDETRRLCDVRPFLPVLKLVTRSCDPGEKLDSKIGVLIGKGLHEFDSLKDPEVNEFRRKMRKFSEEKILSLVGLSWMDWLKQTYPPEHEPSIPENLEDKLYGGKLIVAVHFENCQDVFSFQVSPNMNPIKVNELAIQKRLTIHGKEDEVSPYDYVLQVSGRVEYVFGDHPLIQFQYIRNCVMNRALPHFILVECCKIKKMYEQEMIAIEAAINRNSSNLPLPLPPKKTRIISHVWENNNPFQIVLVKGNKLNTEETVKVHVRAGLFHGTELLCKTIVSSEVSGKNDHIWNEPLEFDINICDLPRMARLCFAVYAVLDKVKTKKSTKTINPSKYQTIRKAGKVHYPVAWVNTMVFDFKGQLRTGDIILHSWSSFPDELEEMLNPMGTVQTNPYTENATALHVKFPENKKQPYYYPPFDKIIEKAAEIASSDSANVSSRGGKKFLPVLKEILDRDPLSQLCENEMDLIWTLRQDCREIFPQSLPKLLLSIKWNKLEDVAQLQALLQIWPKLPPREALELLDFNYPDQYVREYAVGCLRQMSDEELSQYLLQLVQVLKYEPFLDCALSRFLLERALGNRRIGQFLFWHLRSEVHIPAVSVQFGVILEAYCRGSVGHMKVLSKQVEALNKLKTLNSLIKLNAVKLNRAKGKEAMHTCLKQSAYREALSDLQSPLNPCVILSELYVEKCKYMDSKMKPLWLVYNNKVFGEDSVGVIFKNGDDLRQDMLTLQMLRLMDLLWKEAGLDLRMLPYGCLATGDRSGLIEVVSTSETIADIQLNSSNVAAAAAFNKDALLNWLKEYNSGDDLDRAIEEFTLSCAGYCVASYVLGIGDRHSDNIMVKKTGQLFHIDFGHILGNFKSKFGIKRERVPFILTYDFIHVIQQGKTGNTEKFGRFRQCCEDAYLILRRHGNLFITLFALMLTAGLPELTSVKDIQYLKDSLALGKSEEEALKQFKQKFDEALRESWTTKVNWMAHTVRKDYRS
Insulin-like growth factor 1 receptor (Homo sapiens), sequence (P08069 31-736 limits assumed): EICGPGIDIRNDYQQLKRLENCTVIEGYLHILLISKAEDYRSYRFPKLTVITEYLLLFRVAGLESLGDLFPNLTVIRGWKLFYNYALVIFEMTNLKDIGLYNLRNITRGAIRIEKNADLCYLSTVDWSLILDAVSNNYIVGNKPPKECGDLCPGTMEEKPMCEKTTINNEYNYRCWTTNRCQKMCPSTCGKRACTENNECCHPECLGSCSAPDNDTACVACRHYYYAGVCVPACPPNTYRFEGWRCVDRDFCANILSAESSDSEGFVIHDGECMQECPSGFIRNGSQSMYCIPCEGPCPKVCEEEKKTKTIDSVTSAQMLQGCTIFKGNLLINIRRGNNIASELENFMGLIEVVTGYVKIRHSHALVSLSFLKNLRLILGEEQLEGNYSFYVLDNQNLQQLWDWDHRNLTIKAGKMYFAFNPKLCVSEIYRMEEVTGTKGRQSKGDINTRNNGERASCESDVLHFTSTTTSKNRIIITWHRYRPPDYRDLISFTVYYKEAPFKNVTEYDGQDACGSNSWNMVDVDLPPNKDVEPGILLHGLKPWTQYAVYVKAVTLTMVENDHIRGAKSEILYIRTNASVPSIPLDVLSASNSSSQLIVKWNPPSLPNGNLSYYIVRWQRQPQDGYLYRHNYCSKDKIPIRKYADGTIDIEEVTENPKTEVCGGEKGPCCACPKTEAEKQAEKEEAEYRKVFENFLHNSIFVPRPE
Insulin-like growth factor 1 receptor (Homo sapiens), sequence (P08069 741-1367 limits assumed): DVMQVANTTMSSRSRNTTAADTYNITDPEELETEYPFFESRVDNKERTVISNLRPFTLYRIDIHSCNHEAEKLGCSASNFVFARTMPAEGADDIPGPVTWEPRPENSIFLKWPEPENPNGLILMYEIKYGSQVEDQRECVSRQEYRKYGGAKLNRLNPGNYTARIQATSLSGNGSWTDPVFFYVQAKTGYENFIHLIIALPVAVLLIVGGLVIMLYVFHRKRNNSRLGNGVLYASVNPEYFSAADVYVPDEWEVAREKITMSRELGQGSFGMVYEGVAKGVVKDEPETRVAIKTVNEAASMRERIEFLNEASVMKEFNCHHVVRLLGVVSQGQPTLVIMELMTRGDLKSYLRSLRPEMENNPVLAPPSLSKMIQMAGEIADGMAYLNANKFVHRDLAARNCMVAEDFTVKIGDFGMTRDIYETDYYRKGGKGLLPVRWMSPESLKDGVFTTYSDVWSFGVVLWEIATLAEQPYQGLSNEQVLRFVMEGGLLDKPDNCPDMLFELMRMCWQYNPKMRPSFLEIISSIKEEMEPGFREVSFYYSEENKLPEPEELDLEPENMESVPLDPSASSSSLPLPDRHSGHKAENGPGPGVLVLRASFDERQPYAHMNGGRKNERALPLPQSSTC
RAC-alpha serine/threonine-protein kinase (Homo sapiens), sequence (P31749 whole entry): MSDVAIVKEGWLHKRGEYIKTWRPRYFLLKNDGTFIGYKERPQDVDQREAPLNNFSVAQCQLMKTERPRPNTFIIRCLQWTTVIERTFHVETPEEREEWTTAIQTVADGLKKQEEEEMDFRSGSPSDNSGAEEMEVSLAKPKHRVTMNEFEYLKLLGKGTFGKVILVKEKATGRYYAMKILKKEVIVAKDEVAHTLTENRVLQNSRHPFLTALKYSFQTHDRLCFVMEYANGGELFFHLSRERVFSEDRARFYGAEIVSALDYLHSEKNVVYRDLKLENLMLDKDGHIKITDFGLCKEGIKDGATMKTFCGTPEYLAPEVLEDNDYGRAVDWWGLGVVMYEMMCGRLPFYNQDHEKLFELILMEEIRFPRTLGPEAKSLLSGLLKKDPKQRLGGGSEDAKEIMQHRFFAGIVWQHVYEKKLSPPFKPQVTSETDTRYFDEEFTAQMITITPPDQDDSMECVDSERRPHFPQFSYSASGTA
Casein kinase I isoform alpha (Homo sapiens), sequence (P48729 2-337 limits assumed): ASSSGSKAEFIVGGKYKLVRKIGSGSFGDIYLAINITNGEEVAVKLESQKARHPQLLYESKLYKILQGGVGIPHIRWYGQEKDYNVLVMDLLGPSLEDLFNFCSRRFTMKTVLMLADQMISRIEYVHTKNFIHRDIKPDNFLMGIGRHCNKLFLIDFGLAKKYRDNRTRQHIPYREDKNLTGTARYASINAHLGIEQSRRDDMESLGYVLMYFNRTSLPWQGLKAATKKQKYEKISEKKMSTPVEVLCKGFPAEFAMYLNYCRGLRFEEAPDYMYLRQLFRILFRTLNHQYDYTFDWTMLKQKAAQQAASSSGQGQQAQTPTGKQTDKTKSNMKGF
Beta-adrenergic receptor kinase 1 (Homo sapiens), sequence (P25098 whole entry): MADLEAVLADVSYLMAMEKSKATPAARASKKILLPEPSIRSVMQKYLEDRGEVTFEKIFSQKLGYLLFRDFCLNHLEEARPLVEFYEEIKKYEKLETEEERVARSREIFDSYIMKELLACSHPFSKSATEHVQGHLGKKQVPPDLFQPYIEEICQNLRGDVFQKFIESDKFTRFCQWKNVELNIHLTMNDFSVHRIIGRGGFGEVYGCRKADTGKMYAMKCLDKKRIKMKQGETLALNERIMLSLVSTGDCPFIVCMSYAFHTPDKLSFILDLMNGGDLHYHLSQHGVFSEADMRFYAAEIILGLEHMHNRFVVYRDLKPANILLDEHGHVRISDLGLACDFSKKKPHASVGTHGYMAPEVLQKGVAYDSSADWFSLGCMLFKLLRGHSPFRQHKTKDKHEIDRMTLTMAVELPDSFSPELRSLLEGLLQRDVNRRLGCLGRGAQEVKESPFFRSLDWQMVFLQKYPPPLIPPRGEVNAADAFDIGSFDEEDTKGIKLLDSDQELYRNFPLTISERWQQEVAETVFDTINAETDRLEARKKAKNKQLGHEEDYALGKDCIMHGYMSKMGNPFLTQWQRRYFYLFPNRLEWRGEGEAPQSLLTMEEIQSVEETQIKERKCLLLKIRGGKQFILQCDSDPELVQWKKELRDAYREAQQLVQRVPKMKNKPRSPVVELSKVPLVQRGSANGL
Aurora kinase A (Homo sapiens), sequence (O14965 whole entry): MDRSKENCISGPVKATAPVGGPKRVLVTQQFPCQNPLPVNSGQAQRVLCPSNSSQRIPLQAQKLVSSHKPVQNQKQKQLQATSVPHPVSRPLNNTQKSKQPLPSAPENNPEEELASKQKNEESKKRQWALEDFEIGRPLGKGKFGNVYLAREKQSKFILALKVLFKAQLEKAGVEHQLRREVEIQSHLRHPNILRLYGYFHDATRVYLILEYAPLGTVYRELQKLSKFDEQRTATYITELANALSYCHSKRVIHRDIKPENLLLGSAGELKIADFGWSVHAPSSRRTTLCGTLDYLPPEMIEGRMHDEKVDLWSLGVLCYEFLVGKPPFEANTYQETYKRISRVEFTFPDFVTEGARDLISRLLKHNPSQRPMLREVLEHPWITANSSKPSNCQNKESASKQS

## COc1ccc(N2C(=O)COc3ccc(-c4cnc(OC)c(NS(=O)(=O)c5ccc(F)cc5)c4)cc32)cc1
[1]
  inhibition: 0.23%
[2]
  inhibition: 18.2%
[3]
  inhibition: -4.3%
PI3K p110 beta/p85 alpha
  IC50: 0.0945 µM
[4]
  inhibition: 0.73%
[5]
  inhibition: 3.03%
[6]
  inhibition: 7.52%
[7]
  inhibition: -4.94%
[8]
  inhibition: 15.9%
[9]
  inhibition: Dose-dependent effect
[10]
  inhibition: -0.95%
[11]
  Activity: Non-Toxic
[12]
  inhibition: 11.2%
[13]
  inhibition: 0.68%
[14]
  inhibition: 16.6%
[15]
  inhibition: 4.5%
A-375
  IC50: 18.4 µM
[16]
  inhibition: 1.44%
[17]
  inhibition: 9.26%
[18]
  inhibition: 8.49%
[19]
  inhibition: 10.1%
[20]
  clearance: 8.56 mL/min/kg
[21]
  inhibition: 3.17%
[22]
  inhibition: 2.5%
[23]
  inhibition: 67.5%
[24]
  inhibition: 8.06%
[25]
  inhibition: 0.99%
[26]
  inhibition: -3.16%
[27]
  inhibition: -0.06%
[28]
  inhibition: 0.16%
[29]
  inhibition: 6.82%
